According to US20220220128A1, “HETEROCYCLIC COMPOUNDS AS KINASE INHIBITORS, COMPOSITIONS COMPRISING THE HETEROCYCLIC COMPOUND, AND METHODS OF USE THEREOF” (JS Innopharm (Shanghai) Ltd, priority 2019, published 2022):
pIC50: −log10 of the molar value.

How the values were obtained:
BAF3-KIF5B-RET cells = target: T1, BAF3-KIF5B-RET cells (Homo sapiens, UniProt P07949); assay: BAF3-KIF5B-RET Cell proliferation assay (CellTiter-Glo, 72 hours); format: cell-based; details: growth inhibition, read-out: BA/F3-KIF5B-RET Cellular activity
T1 construct: fused on or other part: P33176 (Kinesin-1 heavy chain)
Method: Compounds disclosed herein were tested for the inhibition of RET by a cancer cell proliferation assay commonly known as CellTiter-Glo assay. In this assay, a complete media was prepared by adding 10% fetal bovine serum to RPMI-1640 medium (Life technology) for BAF3-FIF5B-RET cells. BAF3-KIF5B-RET cells were added to each of 88 wells of a 96 well plate at a seeding density of 2,000 cells/well/95 μL. The cells were allowed to attach to the plate by incubating at 37° C. for 24 hours. The compound was dissolved in DMSO (SIGMA). A solution of test compound was prepared in complete media by serial dilution to obtain the following concentrations: 20 μM, 6.67 μM, 2.22 μM, 0.74 μM, 0.25 μM, 0.082 μM, 0.027 μM, 0.0091 μM and 0.0030 μM. The test compound solution (5 μL) was added to each of 80 cell-containing wells. The final concentrations of the compound were following: 1 μM, 0.33 μM, 0.11 μM, 0.037 μM, 0.012 μM, 0.0041 μM, 0.0014 μM, 0.00046 μM and 0.00015 μM. The final concentration of DMSO is 0.1%. To the 8 remaining cell-containing wells, only complete media (containing 0.1% DMSO) was added to form a control group in order to measure maximal proliferation. To the remaining 8 empty wells, complete media was added to for a vehicle control group in order to measure background. The plates were incubated at 37° C. for 72 hours. 50 μl of CellTiter-Glo® Reagent was added to each well. Mix contents for 2 minutes on an orbital shaker to induce cell lysis. Incubate at room temperature for 10 minutes to stabilize luminescent signal. Record luminescence on Paradigm. Cell viability (CV %) was calculated relative to vehicle (DMSO) treated control wells. The IC50 was calculated using GraphPad Prism.

human RET kinase = target: T2, human RET kinase (Homo sapiens, UniProt P07949); assay: RET Kinase Assay (LanthaScreen TR-FRET enzymatic assay); format: biochemical; details: 7 nM RET, 23 μM ATP
T2 construct: purchased Carna 08-159
Method in brief: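 Human RET (7 nM) preincubated 15 min with compound in 50 mM HEPES pH 7.5, 0.0015% Brij-35, then reacted with 3 μM FAM-P2 peptide and 23 μM ATP for 1 h at 28° C.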

T2 sequence (P07949 29-1114): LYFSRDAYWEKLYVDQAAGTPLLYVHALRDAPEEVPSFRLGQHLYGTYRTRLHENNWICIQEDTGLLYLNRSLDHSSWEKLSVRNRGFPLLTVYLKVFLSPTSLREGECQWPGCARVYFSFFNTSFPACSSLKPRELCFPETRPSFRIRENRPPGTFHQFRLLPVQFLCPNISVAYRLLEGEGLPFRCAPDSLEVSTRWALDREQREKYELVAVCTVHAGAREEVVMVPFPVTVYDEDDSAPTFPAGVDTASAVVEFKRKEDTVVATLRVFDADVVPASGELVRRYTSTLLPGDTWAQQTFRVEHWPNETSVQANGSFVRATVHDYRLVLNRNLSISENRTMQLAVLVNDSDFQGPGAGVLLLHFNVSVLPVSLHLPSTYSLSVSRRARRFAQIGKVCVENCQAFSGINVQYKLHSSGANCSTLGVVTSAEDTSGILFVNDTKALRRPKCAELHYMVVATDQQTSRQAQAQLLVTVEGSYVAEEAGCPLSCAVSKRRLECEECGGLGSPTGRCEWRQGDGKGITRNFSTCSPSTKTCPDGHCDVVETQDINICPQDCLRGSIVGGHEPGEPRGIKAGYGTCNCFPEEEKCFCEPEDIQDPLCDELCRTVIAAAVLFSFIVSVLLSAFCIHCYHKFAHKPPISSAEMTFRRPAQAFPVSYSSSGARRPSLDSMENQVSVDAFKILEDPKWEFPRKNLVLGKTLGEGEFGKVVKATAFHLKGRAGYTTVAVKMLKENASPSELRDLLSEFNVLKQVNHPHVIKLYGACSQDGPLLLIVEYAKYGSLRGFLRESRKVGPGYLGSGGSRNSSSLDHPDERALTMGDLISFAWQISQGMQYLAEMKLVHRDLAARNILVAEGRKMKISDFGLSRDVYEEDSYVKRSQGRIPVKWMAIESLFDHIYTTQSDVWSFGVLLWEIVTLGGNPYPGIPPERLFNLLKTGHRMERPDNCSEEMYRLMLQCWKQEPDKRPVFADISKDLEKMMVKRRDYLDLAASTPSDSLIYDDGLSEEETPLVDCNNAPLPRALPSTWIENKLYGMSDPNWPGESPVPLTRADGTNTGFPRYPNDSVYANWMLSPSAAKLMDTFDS
T1 sequence (P07949 whole entry, change not shown, the tested form may be a part): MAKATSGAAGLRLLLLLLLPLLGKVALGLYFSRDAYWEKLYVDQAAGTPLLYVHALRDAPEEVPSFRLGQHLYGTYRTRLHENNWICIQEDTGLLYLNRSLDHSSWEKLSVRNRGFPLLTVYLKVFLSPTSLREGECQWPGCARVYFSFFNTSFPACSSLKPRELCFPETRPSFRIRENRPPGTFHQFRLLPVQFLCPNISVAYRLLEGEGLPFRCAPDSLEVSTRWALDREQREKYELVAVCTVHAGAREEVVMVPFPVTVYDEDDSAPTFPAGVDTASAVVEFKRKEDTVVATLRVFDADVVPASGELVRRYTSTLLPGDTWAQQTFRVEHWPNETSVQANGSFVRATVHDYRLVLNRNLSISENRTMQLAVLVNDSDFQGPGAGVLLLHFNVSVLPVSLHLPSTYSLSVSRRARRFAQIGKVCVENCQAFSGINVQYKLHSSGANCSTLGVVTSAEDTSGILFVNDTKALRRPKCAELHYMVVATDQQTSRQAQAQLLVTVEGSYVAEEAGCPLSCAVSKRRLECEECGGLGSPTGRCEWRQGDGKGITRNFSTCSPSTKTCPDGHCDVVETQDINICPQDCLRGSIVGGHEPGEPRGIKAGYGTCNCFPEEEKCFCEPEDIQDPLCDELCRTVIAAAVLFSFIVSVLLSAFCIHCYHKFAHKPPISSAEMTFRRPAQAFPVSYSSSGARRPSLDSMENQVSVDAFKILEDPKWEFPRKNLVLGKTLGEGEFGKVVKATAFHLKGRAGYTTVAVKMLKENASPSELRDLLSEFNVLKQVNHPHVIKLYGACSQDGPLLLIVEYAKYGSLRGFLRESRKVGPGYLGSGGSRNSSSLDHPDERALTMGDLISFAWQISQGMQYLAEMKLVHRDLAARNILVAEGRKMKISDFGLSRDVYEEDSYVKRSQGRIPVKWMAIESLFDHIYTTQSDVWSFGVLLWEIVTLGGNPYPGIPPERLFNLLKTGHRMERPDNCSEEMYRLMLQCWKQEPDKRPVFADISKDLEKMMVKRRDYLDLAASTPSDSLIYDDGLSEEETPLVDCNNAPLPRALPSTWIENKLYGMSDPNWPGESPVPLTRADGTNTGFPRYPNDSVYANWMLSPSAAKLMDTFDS

Row | GI50 (BAF3-KIF5B-RET cells) [nM] | pIC50 (human RET kinase) | SMILES
1 | 10 to 50 | ≥ 8.00 | COc1ccc(C(=O)NC[C@@H]2[C@H]3CN(c4cnc(-c5cc(-c6cnn(C)c6)cn6ncc(C#N)c56)cn4)C[C@@H]23)cn1 [Example 156, N-(((1R,5S,6s)-3-(5-(3-cyano-6-(1-methyl-1H-pyrazol-4-yl)pyrazolo[1,5-a]pyridin-4-yl)pyrazin-2-yl)-3-azabicyclo[3.1.0]hexan-6-yl)methyl)-6-methoxynicotinamide]
2 | ≤ 10 | ≥ 8.00 | COc1ccc(C(=O)NC23CC4CC(C2)N(c2ccc(-c5cc(-c6cnn(C)c6)cn6ncc(C#N)c56)cn2)C(C4)C3)cn1 [Example 188, N-((1R,3S,5s,7s)-2-(5-(3-cyano-6-(1-methyl-1H-pyrazol-4-yl)pyrazolo[1,5-a]pyridin-4-yl)pyridin-2-yl)-2-azaadainantan-5-yl)-6-methoxynicotinamide]
3 | ≤ 10 | ≥ 8.00 | COc1cccc(C(=O)NC[C@@H]2[C@H]3CN(c4ccc(-c5cc(-c6cnn(C)c6)cn6ncc(C#N)c56)cn4)C[C@@H]23)n1 [Example 195, N-(((1R,5S,6s)-3-(5-(3-cyano-6-(1-methyl-1H-pyrazol-4-yl)pyrazolo[1,5-a]pyridin-4-yl)pyridin-2-yl)-3-azabicyclo[3.1.0]hexan-6-yl)methyl)-6-methoxypicolinamide]
4 | ≤ 10 | ≥ 8.00 | COc1ccnc(C(=O)NC[C@@H]2[C@H]3CN(c4ccc(-c5cc(-c6cnn(C)c6)cn6ncc(C#N)c56)cn4)C[C@@H]23)c1 [Example 193, N-(((1R,5S,6s)-3-(5-(3-cyano-6-(1-methyl-1H-pyrazol-4-yl)pyrazolo[1,5-a]pyridin-4-yl)pyridin-2-yl)-3-azabicyclo[3.1.0]hexan-6-yl)methyl)-4-methoxypicolinamide]
5 | 10 to 50 | ≥ 8.00 | COc1cncc(C(=O)NC[C@@H]2[C@H]3CN(c4ccc(-c5cc(-c6cnn(C)c6)cn6ncc(C#N)c56)cn4)C[C@@H]23)c1 [Example 192, N-(((1R,5S,6s)-3-(5-(3-cyano-6-(1-methyl-1H-pyrazol-4-yl)pyrazolo[1,5-a]pyridin-4-yl)pyridin-2-yl)-3-azabicyclo[3.1.0]hexan-6-yl)methyl)-5-methoxynicotinainide]
6 | 10 to 50 | ≥ 8.00 | COc1ccc(CN2[C@@H]3CC[C@H]2[C@H]2CN(c4ccc(-c5cc(-c6cnn(C)c6)cn6ncc(C#N)c56)cn4)C[C@H]23)cn1 [Example 118, 4-(6-((3aR,4S,7R,7aS)-8-((6-methoxypyridin-3-yl)methyl)hexahydro-1H-4,7-epiminoisoindol-2(3H)-yl)pyridin-3-yl)-6-(1-methyl-1H-pyrazol-4-yl)pyrazolo[1,5-a]pyridine-3-carbonitrile]

Further lines, the compound ahead of its results:

Row | SMILES | GI50 (BAF3-KIF5B-RET cells) [nM] | pIC50 (human RET kinase)
7 | CCOc1cc(-c2cnc(N3C4CC5CC3CC(NC(=O)c3ccc(OC)nc3)(C5)C4)cn2)c2c(C#N)cnn2c1 [Example 167, N-((1R,3S,5s,7s)-2-(5-(3-cyano-6-cthoxypyrazolo[1,5-a]pyridin-4-yl)pyrazin-2-yl)-2-azaadamantan-5-yl)-6-methoxynicotinamide] | 50 to 100 | ≥ 8.00
8 | CC(C)(O)COc1cc(-c2ccc(N3C[C@@H]4C[C@](C)(NC(=O)c5ncccc5Cl)C[C@@H]4C3)nc2)c2c(C#N)cnn2c1 [Example 115, 3-chloro-N-((3aR,5r,6aS)-2-(5-(3-cyano-6-(2-hydroxy-2-methylpropoxy)pyrazolo[1,5-a]pyridin-4-yl)pyridin-2-yl)-5-methyloctahydrocyclopenta[c]pyrrol-5-yl)picolinamide] | 10 to 50 | ≥ 8.00
9 | COc1ccc(NC(=O)C23CC4CC(C2)N(c2ccc(-c5cc(OCC(C)(C)O)cn6ncc(C#N)c56)cn2)C(C4)C3)cn1 [Example 133, (1R,3S,5s,7s)-2-(5-(3-cyano-6-(2-hydroxy-2-methylpropoxy)pyrazolo[1,5-a]pyridin-4-yl)pyridin-2-yl)-N-(6-methoxypyridin-3-yl)-2-azaadamantane-5-carboxamide] | 10 to 50 | ≥ 8.00
10 | COc1ccc(NC(=O)[C@@]2(C)C[C@H]3CN(c4ccc(-c5cc(OCC(C)(C)O)cn6ncc(C#N)c56)cn4)C[C@H]3C2)cn1 [Example 116, (3aR,5r,6aS)-2-(5-(3-cyano-6-(2-hydroxy-2-methylpropoxy)pyrazolo[1,5-a]pyridin-4-yl)pyridin-2-yl)-N-(6-methoxypyridin-3-yl)-5-methyloctahydrocyclopenta[c]pyrrole-5-carboxamide] | > 100 | 7.30 to 8.00
11 | COc1ccc(NC(=O)[C@]2(C)C[C@H]3CN(c4ccc(-c5cc(-c6ccn(C)n6)cn6ncc(C#N)c56)cn4)C[C@H]3C2)cn1 [Example 113, (3aR,5s,6aS)-2-(5-(3-cyano-6-(1-methyl-1H-pyrazol-3-yl)pyrazolo[1,5-a]pyridin-4-yl)pyridin-2-yl)-N-(6-methoxypyridin-3-yl)-5-methyloctahydrocyclopenta[c]pyrrole-5-carboxamide] | ≤ 10 | ≥ 8.00
12 | COc1cc(C(=O)N[C@]2(C)C[C@H]3CN(c4cnc(-c5cc(-c6cnn(C)c6)cn6ncc(C#N)c56)cn4)C[C@H]3C2)ccn1 [Example 150, N-((3aR,5s,6aS)-2-(5-(3-cyano-6-(1-methyl-1H-pyrazol-4-yl)pyrazolo[1,5-a]pyridin-4-yl)pyrazin-2-yl)-5-methyloctahydrocyclopenta[c]pyrrol-5-yl)-2-methoxyisonicotinamide] | ≤ 10 | ≥ 8.00
13 | CC(=O)NC12CC3CC(C1)N(c1cnc(-c4cc(-c5cnn(C)c5)cn5ncc(C#N)c45)cn1)C(C3)C2 [Example 111, N-((1R,3S,5s,7s)-2-(5-(3-cyano-6-(1-methyl-1H-pyrazol-4-yl)pyrazolo[1,5-a]pyridin-4-yl)pyrazin-2-yl)-2-azaadamantan-5-yl)acetamide] | ≤ 10 | ≥ 8.00
14 | CC(C)(O)COc1cc(-c2cnc(N3C[C@@H]4C[C@@](C)(NC(=O)c5c(F)cccc5Cl)C[C@@H]4C3)cn2)c2c(C#N)cnn2c1 [Example 144, 2-chloro-N-((3aR,5s,6aS)-2-(5-(3-cyano-6-(2-hydroxy-2-methylpropoxy)pyrazolo[1,5-a]pyridin-4-yl)pyrazin-2-yl)-5-methyloctahydrocyclopenta[c]pyrrol-5-yl)-6-fluorobenzainide] | ≤ 10 | ≥ 8.00
15 | COc1ccc(C(=O)N[C@@H]2C[C@@H]3CN(c4cnc(-c5cc(OCC(C)(C)O)cn6ncc(C#N)c56)cn4)C[C@@H]3C2)cn1 [Example 110, N-((3aR,5r,6aS)-2-(5-(3-cyano-6-(2-hydroxy-2-methylpropoxy)pyrazolo[1,5-a]pyridin-4-yl)pyrazin-2-yl)octahydrocyclopenta[c]pyrrol-5-yl)-6-methoxynicotinamide] | > 100 | 7.00 to 7.30
16 | COc1ccnc(C(=O)N[C@]2(C)C[C@H]3CN(c4cnc(-c5cc(-c6cnn(C)c6)cn6ncc(C#N)c56)cn4)C[C@H]3C2)c1 [Example 149, N-((3aR,5s,6aS)-2-(5-(3-cyano-6-(1-methyl-1H-pyrazol-4-yl)pyrazolo[1,5-a]pyridin-4-yl)pyrazin-2-yl)-5-methyloctahydrocyclopenta[c]pyrrol-5-yl)-4-methoxypicolinamide] | ≤ 10 | ≥ 8.00
17 | Cn1cc(-c2cc(-c3cnc(N4C5CC6CC4CC(O)(C6)C5)cn3)c3c(C#N)cnn3c2)cn1 [Example 104, 4-(5-((1R,3S,5s,7s)-5-hydroxy-2-azaadamantan-2-yl)pyrazin-2-yl)-6-(1-methyl-1H-pyrazol-4-yl)pyrazolo[1,5-a]pyridine-3-carbonitrile] | 10 to 50 | ≥ 8.00
18 | CCOc1cc(-c2cnc(N3C4CC5CC3CC(C(=O)Nc3ccc(OC)nc3)(C5)C4)cn2)c2c(C#N)cnn2c1 [Example 170, (1R,3S,5s,7s)-2-(5-(3-cyano-6-ethoxypyrazolo[1,5-a]pyridin-4-yl)pyrazin-2-yl)-N-(6-methoxypyridin-3-yl)-2-azaadamantane-5-carboxamide] | 10 to 50 | ≥ 8.00
19 | COc1ccc(CC(=O)N[C@H]2[C@@H]3CN(c4ccc(-c5cc(OCC(C)(C)O)cn6ncc(C#N)c56)cn4)C[C@@H]32)cn1 [Example 190, N-((1R,5S,6s)-3-(5-(3-cyano-6-(2-hydroxy-2-methylpropoxy)pyrazolo[1,5-a]pyridin-4-yl)pyridin-2-yl)-3-azabicyclo[3.1.0]hexan-6-yl)-2-(6-methoxypyridin-3-yl)acetamide] | > 100 | 7.00 to 7.30
